Test results published in US6362181B1, “Isoquinolones” (Warner-Lambert Company, priority 1996, dated 2002).
In brackets after ≈: the same amount, converted by molar mass. Counter-ions that a name gives are not always drawn.

How the values were obtained:
B. subtilis RB1 = experiment: Antibacterial assay, standard microtitration, MIC; type: cell-based; settings: Gram positive; for MIC: Bacillus subtilis, read-out: Minimum Inhibitory Concentrations, B. subtilis RB1
Description: (§1) The compounds of the present invention were tested against an assortment of gram negative and gram positive organisms using standard microtitration techniques (Cohen, et al., Antimicrob. Agents Chemother., 1985;28:766; Heifetz, et al. Antimicrob. Agents Chemother., 1974;6:124).

E. coli B90 = experiment: Antibacterial assay, standard microtitration, MIC; type: cell-based; settings: Gram negative; for MIC: Escherichia coli, read-out: Minimum Inhibitory Concentrations, E. coli B90
Description: as §1

E. coli MC4100 = experiment: Antibacterial assay, standard microtitration, MIC; type: cell-based; settings: Gram negative; for MIC: Escherichia coli, read-out: Minimum Inhibitory Concentrations, E. coli MC4100
Description: as §1

E. coli To1C = experiment: Antibacterial assay, standard microtitration, MIC; type: cell-based; settings: for MIC: Escherichia coli, TO1C, read-out: Minimum Inhibitory Concentrations, E. coli To1C; for Minimum Inhibitory Concentrations, E. coli To1C: Gram negative
Description: as §1

S. aureus 29213 = experiment: Antibacterial assay, standard microtitration, MIC; type: cell-based; settings: Gram positive; for MIC: Staphylococcus aureus, read-out: Minimum Inhibitory Concentrations, S. aureus 29213
Description: as §1

S. pyogenes C203 = experiment: Antibacterial assay, standard microtitration, MIC; type: cell-based; settings: Gram positive; for MIC: Streptococcus pyogenes, read-out: Minimum Inhibitory Concentrations, S. pyogenes C203
Description: as §1

SMILES	melting point [°C]	MIC (B. subtilis RB1) [µg/mL]	MIC (E. coli B90) [µg/mL]	MIC (E. coli MC4100) [µg/mL]	MIC (E. coli To1C) [µg/mL]	MIC (S. aureus 29213) [µg/mL]	MIC (S. pyogenes C203) [µg/mL]	also measured
O=C1c2cccc3c(N4CCNCC4)c([N+](=O)[O-])cc(c23)C(=O)N1O	300 to 302	–	–	–	–	–	–	–
NCC1CCN(c2c(Cl)cc3c4c(cccc24)C(=O)N(O)C3=O)C1 (stereo not drawn) (as salt: HCl) [Example 85]	229 to 232	–	–	–	–	–	–	–
CC1(CN)CCN(c2c(Cl)cc3c4c(cccc24)C(=O)N(O)C3=O)C1 (stereo not drawn) (as salt: TFA) [Example 89]	160 to 166	–	–	–	–	–	–	–
CN1CCN(c2c(Cl)cc3c4c(cccc24)C(=O)N(O)C3=O)CC1 (as salt: TFA) [Example 98]	> 250	–	–	–	–	–	–	–
CCOc1cc2c3c(cccc3c1)C(=O)N(O)C2=O [Example 14, 5-Ethoxy-2-hydroxy-benzo[de]isoquinoline-1,3-dione]	–	1 (≈ 3.89 µM)	0.25 (≈ 0.972 µM)	2 (≈ 7.77 µM)	0.13 (≈ 0.505 µM)	8 (≈ 31.1 µM)	> 64	–
O=C1c2cccc3c(N4CCCC4)ccc(c23)C(=O)N1O [Example 18, 2-Hydroxy-6-(pyrrolidin-1-yl)-benzo[de]isoquinoline-1,3-dione]	–	2 (≈ 7.08 µM)	4 (≈ 14.2 µM)	> 64	1 (≈ 3.54 µM)	1 (≈ 3.54 µM)	4 (≈ 14.2 µM)	–
Cc1cc2c3c(cccc3c1)C(=O)N(O)C2=O [Example 21, 2-Hydroxy-5-methyl-benzo[de]isoquinoline-1,3-dione]	–	4 (≈ 17.6 µM)	2 (≈ 8.8 µM)	8 (≈ 35.2 µM)	1 (≈ 4.4 µM)	16 (≈ 70.4 µM)	64 (≈ 282 µM)	–
CC(=O)OCCOc1cc2c3c(cccc3c1)C(=O)N(O)C2=O [Example 23, 2-Hydroxy-5-(2-acetoxy-ethoxy)-benzo[de]isoquinoline-1,3-dione]	–	4 (≈ 12.7 µM)	2 (≈ 6.34 µM)	16 (≈ 50.7 µM)	1 (≈ 3.17 µM)	> 64	> 64	–
COc1cc2c3c(cccc3c1N1CCCCC1)C(=O)N(O)C2=O [Example 35, 2-Hydroxy-5-methoxy-6-(piperidin-1-yl)-benzo[de]isoquinoline-1,3-dione]	–	2 (≈ 6.13 µM)	64 (≈ 196 µM)	> 64	64 (≈ 196 µM)	1 (≈ 3.06 µM)	4 (≈ 12.3 µM)	–
O=C1c2cccc3c4c(cc(c23)C(=O)N1O)OCOC4 [Example 45, 5-Hydroxy-11H-8,10-dioxa-5-aza-benzo[de]anthracene-4,6-dione]	–	0.25 (≈ 0.922 µM)	0.13 (≈ 0.479 µM)	0.5 (≈ 1.84 µM)	0.13 (≈ 0.479 µM)	1 (≈ 3.69 µM)	8 (≈ 29.5 µM)	–
O=C1c2ccc([N+](=O)[O-])c3c([N+](=O)[O-])ccc(c23)C(=O)N1O [Example 48, 2-Hydroxy-6,7-dinitro-benzo[de]isoquinoline-1,3-dione]	–	8 (≈ 26.4 µM)	4 (≈ 13.2 µM)	16 (≈ 52.8 µM)	4 (≈ 13.2 µM)	2 (≈ 6.6 µM)	1 (≈ 3.3 µM)	–
O=C1c2cccc3c(N4CCCCC4)c(Br)cc(c23)C(=O)N1O [Example 49, 5-Bromo-2-hydroxy-6-(piperidine-1-yl)-benzo[de]isoquinoline-1,3-dione]	–	1 (≈ 2.67 µM)	4 (≈ 10.7 µM)	64 (≈ 171 µM)	8 (≈ 21.3 µM)	2 (≈ 5.33 µM)	64 (≈ 171 µM)	–
CN(C)c1c(Br)cc2c3c(cccc13)C(=O)N(O)C2=O [Example 53, 5-Bromo-6-dimethylamino-2-hydroxy-benzo[de]isoquinoline-1,3-dione]	–	2 (≈ 5.97 µM)	2 (≈ 5.97 µM)	64 (≈ 191 µM)	1 (≈ 2.98 µM)	4 (≈ 11.9 µM)	32 (≈ 95.5 µM)	–
Cl.N[C@H]1CCN(c2c(Br)cc3c4c(cccc24)C(=O)N(O)C3=O)C1 [Example 54, (S)-6-(3-Amino-pyrrolidin-1-yl)-5-bromo-2-hydroxy-1H-benzo[de]isoquinoline-1,3-dione, Hydrochloride]	–	2	0.5	2	0.5	8	4	–
N#Cc1cc2c3c(cccc3c1N1CCCC1)C(=O)N(O)C2=O [Example 57, 5-Cyano-2-hydroxy-6-(pyrrolidin-1-yl)-benzo[de]isoquinoline-1,3-dione]	–	1 (≈ 3.25 µM)	0.5 (≈ 1.63 µM)	32 (≈ 104 µM)	0.5 (≈ 1.63 µM)	4 (≈ 13 µM)	32 (≈ 104 µM)	–
CC(=O)Nc1cc2c3c(cccc3c1N1CCCC1)C(=O)N(O)C2=O [Example 64, 5-Acetamido-2-hydroxy-6-(pyrrolidin-1yl)-benzo[de]isoquinoline-1,3-dione]	–	64 (≈ 189 µM)	32 (≈ 94.3 µM)	> 64	16 (≈ 47.1 µM)	> 64	> 64	–
CC(=O)Nc1cc2c3c(cccc3c1N1CCCCC1)C(=O)C(O)C2=O (stereo not drawn) [Example 65]	252 to 255	–	–	–	–	–	–	–
CC(=O)Nc1cc2c3c(cccc3c1[SH]1CCNCC1)C(=O)C(O)C2=O (stereo not drawn) [Example 67]	292 to 295	–	–	–	–	–	–	–
Nc1cc2c3c(cccc3c1N1CCCCC1)C(=O)N(O)C2=O [Example 71]	244 to 248	2 (≈ 6.42 µM)	4 (≈ 12.8 µM)	> 64	4 (≈ 12.8 µM)	2 (≈ 6.42 µM)	16 (≈ 51.4 µM)	–
Nc1cc2c3c(cccc3c1[SH]1CCNCC1)C(=O)N(O)C2=O [Example 73]	270 to 274	–	–	–	–	–	–	–

SMILES	melting point [°C]	MIC (B. subtilis RB1) [µg/mL]	MIC (E. coli B90) [µg/mL]	MIC (E. coli MC4100) [µg/mL]	MIC (E. coli To1C) [µg/mL]	MIC (S. aureus 29213) [µg/mL]	MIC (S. pyogenes C203) [µg/mL]	also measured
O=C1c2cccc3c(N4CCCCC4)c([N+](=O)[O-])cc(c23)C(=O)N1O [Example 77]	252 to 254	–	–	–	–	–	–	–
O=C1c2cccc3c([SH]4CCNCC4)c([N+](=O)[O-])cc(c23)C(=O)N1O [Example 78]	280 to 283	–	–	–	–	–	–	–
CN1CCN(c2c([N+](=O)[O-])cc3c4c(cccc24)C(=O)N(O)C3=O)CC1 [Example 80]	320 to 322	–	–	–	–	–	–	–
NC1CCN(c2c([N+](=O)[O-])cc3c4c(cccc24)C(=O)N(O)C3=O)C1 (stereo not drawn) [Example 82]	259 to 263	–	–	–	–	–	–	–
O=C1c2cccc3c(N4CC[C@H](O)C4)c(Cl)cc(c23)C(=O)N1O [Example 84]	197 to 201	–	–	–	–	–	–	–
CC(C)NCC1CCN(c2c(Cl)cc3c4c(cccc24)C(=O)N(O)C3=O)C1.O=C(O)C(F)(F)F (stereo not drawn) [Example 86]	–	–	–	–	–	–	–	Minimum Inhibitory Concentrations, B. subtilis RB1 (B. subtilis RB1): 2.0 µg/mL; Minimum Inhibitory Concentrations, E. coli B90 (E. coli B90): 0.5 µg/mL; Minimum Inhibitory Concentrations, E. coli MC4100 (E. coli MC4100): 8.0 µg/mL; Minimum Inhibitory Concentrations, E. coli To1C (E. coli To1C): 0.5 µg/mL; Minimum Inhibitory Concentrations, S. aureus 29213 (S. aureus 29213): 4.0 µg/mL; Minimum Inhibitory Concentrations, S. pyogenes C203 (S. pyogenes C203): 4.0 µg/mL
O=C1c2cccc3c(N4CCCCC4)c(Cl)cc(c23)C(=O)N1O [Example 94]	228 to 229	–	–	–	–	–	–	–
O=C1c2cccc3c([SH]4CCNCC4)c(Cl)cc(c23)C(=O)N1O [Example 95]	240 to 242	–	–	–	–	–	–	–
NC1CCN(c2c(Cl)cc3c4c(cccc24)C(=O)N(O)C3=O)C1.O=C(O)C(F)(F)F (stereo not drawn) [Example 99]	–	–	–	–	–	–	–	Minimum Inhibitory Concentrations, B. subtilis RB1 (B. subtilis RB1): 1.0 µg/mL; Minimum Inhibitory Concentrations, E. coli B90 (E. coli B90): 1.0 µg/mL; Minimum Inhibitory Concentrations, E. coli MC4100 (E. coli MC4100): 2.0 µg/mL; Minimum Inhibitory Concentrations, E. coli To1C (E. coli To1C): 0.5 µg/mL; Minimum Inhibitory Concentrations, S. aureus 29213 (S. aureus 29213): 8.0 µg/mL; Minimum Inhibitory Concentrations, S. pyogenes C203 (S. pyogenes C203): 4.0 µg/mL
CCCCNC(=O)Nc1cc2c3c(cccc3c1)C(=O)N(O)C2=O [Example 100]	> 250	–	–	–	–	–	–	–
CNC(=O)Nc1cc2c3c(cccc3c1)C(=O)N(O)C2=O [Example 101]	> 250	–	–	–	–	–	–	–
Cc1cc2c3c(cccc3c1Br)C(=O)N(O)C2=O [Example 104, 6-Bromo-5-methyl-2-hydroxy-benzo[de]isoquinoline-1,3-dione]	–	0.5 (≈ 1.63 µM)	0.25 (≈ 0.817 µM)	> 64	0.25 (≈ 0.817 µM)	4 (≈ 13.1 µM)	> 64	–
O=C1c2cccc3c([N+](=O)[O-])c(Br)cc(c23)C(=O)N1O [Example 108, 5-Bromo-2-hydroxy-6-nitro-benzo[de]isoquinoline-1,3-dione]	–	2 (≈ 5.93 µM)	0.25 (≈ 0.742 µM)	8 (≈ 23.7 µM)	0.5 (≈ 1.48 µM)	4 (≈ 11.9 µM)	16 (≈ 47.5 µM)	–
O=C1c2cc([N+](=O)[O-])cc3c(N4CCCC4)c([N+](=O)[O-])cc(c23)C(=O)N1O [Example 111, 2-Hydroxy-5,8-dinitro-6-(pyrrolidin-1-yl)-benzo[de]isoquinoline-1,3-dione]	–	32 (≈ 86 µM)	2 (≈ 5.37 µM)	> 64	4 (≈ 10.7 µM)	8 (≈ 21.5 µM)	> 64	–
CN1COc2cc3c4c(cccc4c2C1)C(=O)N(O)C3=O [Example 127]	247 to 249	–	–	–	–	–	–	–
CCCCCN1COc2cc3c4c(cccc4c2C1)C(=O)N(O)C3=O [Example 129]	194 to 196	–	–	–	–	–	–	–
O=C1c2cccc3c4c(cc(c23)C(=O)N1O)OCN(C1CC1)C4 [Example 131]	–	–	–	–	–	–	–	Minimum Inhibitory Concentrations, B. subtilis RB1 (B. subtilis RB1): 32 µg/mL; Minimum Inhibitory Concentrations, E. coli B90 (E. coli B90): 8.0 µg/mL; Minimum Inhibitory Concentrations, E. coli MC4100 (E. coli MC4100): 32 µg/mL; Minimum Inhibitory Concentrations, E. coli To1C (E. coli To1C): 8.0 µg/mL; Minimum Inhibitory Concentrations, S. aureus 29213 (S. aureus 29213): >64 µg/mL; Minimum Inhibitory Concentrations, S. pyogenes C203 (S. pyogenes C203): >64 µg/mL
O=C1c2cccc3c(N4CCCC4)c(F)cc(c23)C(=O)N1O [Example 134, 5-Fluoro-2-hydroxy-6-(pyrrolidin-1-yl)-benzo[de]isoquinoline-1,3-dione]	–	1 (≈ 3.33 µM)	0.5 (≈ 1.67 µM)	> 64	0.5 (≈ 1.67 µM)	1 (≈ 3.33 µM)	8 (≈ 26.6 µM)	–
CN(C)CCN1C(=O)c2cccc3cc([N+](=O)[O-])cc(c23)C1=O [Mitonafide, mitonafide, reference compound]	–	16 (≈ 51.1 µM)	8 (≈ 25.5 µM)	32 (≈ 102 µM)	–	32 (≈ 102 µM)	4 (≈ 12.8 µM)	–
